Assays:
Type in all cases: cell-based
Conditions in all cases: 10.0% saccharide, 1.0% yeast extract, 1.6% xanthan gum (dextrin 0.5%, starch none), pH 6.2, candle jar, 37° C.
Gram-negative bacilli = assay: Experiment Example 2: comparison of saccharides, specimen culture, Gram smear
Source text: (§1) • (1)The preparation of the compositions: Different saccharides were used respectively to prepare the following compositions according to the methods mentioned above: glucose, fructose, galactose, mannose, maltose, sucrose, lactose, lactulose, mycose, cellobiose, melibiose, melitose, malto-oligosaccharide, isomaltooligosaccharide and fructooligosaccharide, dextrin, starch, and glycogen: • A. 5% glucose, 1.0% yeast extract, 1.6% xanthan gum, pH adjusted to 6.2; • B. 5% fructose, 1.0% yeast extract, 1.6% xanthan gum, pH adjusted to 6.2; • C. 5% galactose, 1.0% yeast extract, 1.6% xanthan gum, pH adjusted to 6.2; • D. 5% mannose, 1.0% yeast extract, 1.6% xanthan gum, pH adjusted to 6.2; • E. 10.0% maltose, 1.0% yeast extract, 1.6% xanthan gum, pH adjusted to 6.2; • F. 10.0% sucrose, 1.0% yeast extract, 1.6% xanthan gum, pH adjusted to 6.2; • G. 10.0% lactose, 1.0% yeast extract, 1.6% xanthan gum, pH adjusted to 6.2; • H. 10.0% lactulose, 1.0% yeast extract, 1.6% xanthan gum, pH adjusted to 6.2; • I. 10.0% cellobiose, 1.0% yeast extract, 1.6% xanthan gum, pH adjusted to 6.2; • J. 10.0% mycose, 1.0% yeast extract, 1.6% xanthan gum, pH adjusted to 6.2; • K. 10.0% melibiose, 1.0% yeast extract, 1.6% xanthan gum, pH adjusted to 6.2; • L. 10.0% melitose, 1.0% yeast extract, 1.6% xanthan gum, pH adjusted to 6.2; • M. 10.0% maltooligosaccharide, 1.0% yeast extract, 1.6% xanthan gum, pH adjusted to 6.2; • N. 10.0% isomaltooligosaccharide, 1.0% yeast extract, 1.6% xanthan gum, pH adjusted to 6.2; • O. 10.0% fructooligosaccharide, 1.0% yeast extract, 1.6% xanthan gum, pH adjusted to 6.2; • P. 10.0% dextrin, 1.0% yeast extract, 0.5% xanthan gum, pH adjusted to 6.2; • Q. 10.0% starch, 1.0% yeast extract, pH adjusted to 6.2; • R. 10.0% glycogen, 1.0% yeast extract, 1.6% xanthan gum, pH adjusted to 6.2. • (2)The preparation of the test tubes: The compositions prepared above were filled into test tubes, with each tube containing 5 ml, sterilized, and kept until use for experiment. • (3) Specimen suspension: Vaginal secretion was taken from one of the patients suffering from typical bacterial vagmosis with a cotton swab, then the swab was washed in 2 ml sterilized Trypcase-soy Broth immediately, and thus the specimen suspension was ready. […] Then the tubes were placed in a candle jar and cultivated at 37° C. After 24 hours and 48 hours' culture, culture samples were taken respectively from each of the tubes, then the Gram smears of the samples were observed and the pH values of culture samples were tested. […] Meanwhile the pH values in most of the composition tubes decreased to different levels. […] And maltose and sucrose exert better effect in promoting the growth of Gram-positive bacilli and the production of acids than that of the other kinds of oligosaccharides.

Gram-negative cocci = assay: as above
Source text: as §1

Gram-positive bacilli = assay: as above
Source text: as §1

Gram-positive cocci = assay: as above
Source text: as §1

[1] = test system: vaginal secretion specimen of a patient suffering from typical bacterial vaginosis; assay: Experiment Example 2: pH of culture samples (production of acids)
Source text: as §1

Row | Compound | Bacteria G − b (Gram-negative bacilli), 24 hours-culture (Gram-negative bacilli) | Bacteria G − b (Gram-negative bacilli), 48 hours-culture (Gram-negative bacilli) | Bacteria G − c (Gram-negative cocci), 24 hours-culture (Gram-negative cocci) | Bacteria G − c (Gram-negative cocci), 48 hours-culture (Gram-negative cocci) | Bacteria G + b (Gram-positive bacilli), 24 hours-culture (Gram-positive bacilli) | Bacteria G + b (Gram-positive bacilli), 48 hours-culture (Gram-positive bacilli) | Bacteria G + c (Gram-positive cocci), 24 hours-culture (Gram-positive cocci) | Bacteria G + c (Gram-positive cocci), 48 hours-culture (Gram-positive cocci) | pH, 24 hours-culture [1] | pH, 48 hours-culture [1]
1 | OC[C@H]1O[C@@H](O[C@@H]2[C@@H](CO)OC(O)(CO)[C@H]2O)[C@H](O)[C@@H](O)[C@H]1O (mixture of isomers) [Lactulose, lactulose] | G − b, + (1-9 bacteria per field of vision under oil-immersion lens) | G − b, + (1-9 bacteria per field of vision under oil-immersion lens) | G − c, − (No or less than one bacterium per field of version under oil-immersion lens) | G − c, − (No or less than one bacterium per field of version under oil-immersion lens) | G + b, +++ (About 100 bacteria or more per field vision under oil-immersion lens, even uncountable) | G + b, ++ (About 10-99 bacteria per field of vision under oil-immersion lens) | G + c, + (1-9 bacteria per field of vision under oil-immersion lens) | G + c, + (1-9 bacteria per field of vision under oil-immersion lens) | 5.8-6.2 | 6.2
2 | starch | G − b, ++ (About 10-99 bacteria per field of vision under oil-immersion lens) | G − b, ++ (About 10-99 bacteria per field of vision under oil-immersion lens) | G − c, − (No or less than one bacterium per field of version under oil-immersion lens) | G − c, − (No or less than one bacterium per field of version under oil-immersion lens) | G + b, ++ (About 10-99 bacteria per field of vision under oil-immersion lens) | G + b, ++ (About 10-99 bacteria per field of vision under oil-immersion lens) | G + c, + (1-9 bacteria per field of vision under oil-immersion lens) | G + c, + (1-9 bacteria per field of vision under oil-immersion lens) | 6.7 | 6.2
3 | OC[C@H]1O[C@H](O[C@H]2O[C@H](CO)[C@@H](O)[C@H](O)[C@H]2O)[C@H](O)[C@@H](O)[C@@H]1O [Mycose, mycose] | G − b, + (1-9 bacteria per field of vision under oil-immersion lens) | G − b, ++ (About 10-99 bacteria per field of vision under oil-immersion lens) | G − c, − (No or less than one bacterium per field of version under oil-immersion lens) | G − c, − (No or less than one bacterium per field of version under oil-immersion lens) | G + b, ++ (About 10-99 bacteria per field of vision under oil-immersion lens) | G + b, +++ (About 100 bacteria or more per field vision under oil-immersion lens, even uncountable) | G + c, + (1-9 bacteria per field of vision under oil-immersion lens) | G + c, + (1-9 bacteria per field of vision under oil-immersion lens) | 4.8 | 4.6-4.8
4 | OC[C@H]1O[C@H](OCC2O[C@@H](O)[C@H](O)[C@@H](O)[C@@H]2O)[C@H](O)[C@@H](O)[C@H]1O (some centres unmarked) [Melibiose, melibiose] | G − b, ++ (About 10-99 bacteria per field of vision under oil-immersion lens) | G − b, ++ (About 10-99 bacteria per field of vision under oil-immersion lens) | G − c, + (1-9 bacteria per field of vision under oil-immersion lens) | G − c, − (No or less than one bacterium per field of version under oil-immersion lens) | G + b, + (1-9 bacteria per field of vision under oil-immersion lens) | G + b, ++ (About 10-99 bacteria per field of vision under oil-immersion lens) | G + c, + (1-9 bacteria per field of vision under oil-immersion lens) | G + c, + (1-9 bacteria per field of vision under oil-immersion lens) | 6.2 | 5.8
5 | glycogen | G − b, ++ (About 10-99 bacteria per field of vision under oil-immersion lens) | G − b, ++ (About 10-99 bacteria per field of vision under oil-immersion lens) | G − c, − (No or less than one bacterium per field of version under oil-immersion lens) | G − c, − (No or less than one bacterium per field of version under oil-immersion lens) | G + b, ++ (About 10-99 bacteria per field of vision under oil-immersion lens) | G + b, +++ (About 100 bacteria or more per field vision under oil-immersion lens, even uncountable) | G + c, + (1-9 bacteria per field of vision under oil-immersion lens) | G + c, + (1-9 bacteria per field of vision under oil-immersion lens) | 6.4 | 6.2

Reference: patent US6964949B2, “Pharmaceutical compositions for promoting the growth of gram-positive bacilli and increasing the acidity in the vagina and the use thereof” (Shanghai Jiao Da Onlly Co., Ltd., priority 2000, dated 2005)
